# What was measured:
# Assay in all cases: relative viability (nuclei count vs DMSO), 5 days (fraction); higher = more cells survive
# CAP-232 = compound: C[C@H]([C@@H](C(=O)N)NC(=O)[C@@H]1CSSC[C@@H](C(=O)N[C@H](C(=O)N[C@@H](C(=O)N[C@H](C(=O)N1)CCCCN)CC2=CNC3=CC=CC=C32)CC4=CC=C(C=C4)O)NC(=O)[C@@H](CC5=CC=CC=C5)N)O [CAP-232]
# In short: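 Viability is treated-well nuclei as a fraction of vehicle-well nuclei, reported as the median across plates. Before counting, lung cancer cell lines were kept overnight at 37 °C in 1536-well plates, pinned with five √10-spaced library-drug doses on vehicle-anchored plates, and left 5 days without medium change, then fixed, permeabilised and Hoechst-stained in one step, imaged at 4× and counted by MetaXpress. A plate passed only if control CV was below 25% and at least one doubling occurred.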
# CAP-232 + Alpelisib = compound: C[C@H]([C@@H](C(=O)N)NC(=O)[C@@H]1CSSC[C@@H](C(=O)N[C@H](C(=O)N[C@@H](C(=O)N[C@H](C(=O)N1)CCCCN)CC2=CNC3=CC=CC=C32)CC4=CC=C(C=C4)O)NC(=O)[C@@H](CC5=CC=CC=C5)N)O [CAP-232] + Cc1nc(NC(=O)N2CCC[C@H]2C(N)=O)sc1-c1ccnc(C(C)(C)C(F)(F)F)c1 [Alpelisib] (partner 2 µM)
# In short: (§1)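 Relative viability was taken as the ratio of nuclei in treated wells to nuclei in vehicle wells. Lung cancer cell lines in 1536-well plates received compounds by pin tool one day after seeding, either one drug alone or a fixed anchor-drug dose plus five library-drug doses (not always all listed) in √10 steps. Nuclei were counted on 4× images after 5 days of treatment, and values are medians of duplicate plates.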
# CAP-232 + Lapatinib = compound: C[C@H]([C@@H](C(=O)N)NC(=O)[C@@H]1CSSC[C@@H](C(=O)N[C@H](C(=O)N[C@@H](C(=O)N[C@H](C(=O)N1)CCCCN)CC2=CNC3=CC=CC=C32)CC4=CC=C(C=C4)O)NC(=O)[C@@H](CC5=CC=CC=C5)N)O [CAP-232] + CS(=O)(=O)CCNCc1ccc(-c2ccc3ncnc(Nc4ccc(OCc5cccc(F)c5)c(Cl)c4)c3c2)o1 [Lapatinib] (partner 2 µM)
# In short: as §1
# CAP-232 + Navitoclax = compound: C[C@H]([C@@H](C(=O)N)NC(=O)[C@@H]1CSSC[C@@H](C(=O)N[C@H](C(=O)N[C@@H](C(=O)N[C@H](C(=O)N1)CCCCN)CC2=CNC3=CC=CC=C32)CC4=CC=C(C=C4)O)NC(=O)[C@@H](CC5=CC=CC=C5)N)O [CAP-232] + CC1(C)CCC(c2ccc(Cl)cc2)=C(CN2CCN(c3ccc(C(=O)NS(=O)(=O)c4ccc(N[C@H](CCN5CCOCC5)CSc5ccccc5)c(S(=O)(=O)C(F)(F)F)c4)cc3)CC2)C1 [Navitoclax] (partner 0.5 µM)
# In short: as §1
# CAP-232 + Foretinib = compound: C[C@H]([C@@H](C(=O)N)NC(=O)[C@@H]1CSSC[C@@H](C(=O)N[C@H](C(=O)N[C@@H](C(=O)N[C@H](C(=O)N1)CCCCN)CC2=CNC3=CC=CC=C32)CC4=CC=C(C=C4)O)NC(=O)[C@@H](CC5=CC=CC=C5)N)O [CAP-232] + COc1cc2c(Oc3ccc(NC(=O)C4(C(=O)Nc5ccc(F)cc5)CC4)cc3F)ccnc2cc1OCCCN1CCOCC1 [Foretinib] (partner 0.25 µM)
# In short: as §1
# CAP-232 + Bortezomib = compound: C[C@H]([C@@H](C(=O)N)NC(=O)[C@@H]1CSSC[C@@H](C(=O)N[C@H](C(=O)N[C@@H](C(=O)N[C@H](C(=O)N1)CCCCN)CC2=CNC3=CC=CC=C32)CC4=CC=C(C=C4)O)NC(=O)[C@@H](CC5=CC=CC=C5)N)O [CAP-232] + CC(C)C[C@H](NC(=O)[C@H](Cc1ccccc1)NC(=O)c1cnccn1)B(O)O [Bortezomib] (partner 0.002 µM)
# In short: as §1
# CAP-232 + Linsitinib = compound: C[C@H]([C@@H](C(=O)N)NC(=O)[C@@H]1CSSC[C@@H](C(=O)N[C@H](C(=O)N[C@@H](C(=O)N[C@H](C(=O)N1)CCCCN)CC2=CNC3=CC=CC=C32)CC4=CC=C(C=C4)O)NC(=O)[C@@H](CC5=CC=CC=C5)N)O [CAP-232] + C[C@]1(O)C[C@@H](c2nc(-c3ccc4ccc(-c5ccccc5)nc4c3)c3c(N)nccn32)C1 [Linsitinib] (partner 1 µM)
# In short: as §1
# CAP-232 + Pictilisib = compound: C[C@H]([C@@H](C(=O)N)NC(=O)[C@@H]1CSSC[C@@H](C(=O)N[C@H](C(=O)N[C@@H](C(=O)N[C@H](C(=O)N1)CCCCN)CC2=CNC3=CC=CC=C32)CC4=CC=C(C=C4)O)NC(=O)[C@@H](CC5=CC=CC=C5)N)O [CAP-232] + CS(=O)(=O)N1CCN(Cc2cc3nc(-c4cccc5[nH]ncc45)nc(N4CCOCC4)c3s2)CC1 [Pictilisib] (partner 1 µM)
# In short: as §1
# CAP-232 + Olaparib = compound: C[C@H]([C@@H](C(=O)N)NC(=O)[C@@H]1CSSC[C@@H](C(=O)N[C@H](C(=O)N[C@@H](C(=O)N[C@H](C(=O)N1)CCCCN)CC2=CNC3=CC=CC=C32)CC4=CC=C(C=C4)O)NC(=O)[C@@H](CC5=CC=CC=C5)N)O [CAP-232] + O=C(c1cc(Cc2n[nH]c(=O)c3ccccc23)ccc1F)N1CCN(C(=O)C2CC2)CC1 [Olaparib] (partner 8 µM)
# In short: as §1
# CAP-232 + Crizotinib = compound: C[C@H]([C@@H](C(=O)N)NC(=O)[C@@H]1CSSC[C@@H](C(=O)N[C@H](C(=O)N[C@@H](C(=O)N[C@H](C(=O)N1)CCCCN)CC2=CNC3=CC=CC=C32)CC4=CC=C(C=C4)O)NC(=O)[C@@H](CC5=CC=CC=C5)N)O [CAP-232] + C[C@@H](Oc1cc(-c2cnn(C3CCNCC3)c2)cnc1N)c1c(Cl)ccc(F)c1Cl [Crizotinib] (partner 1 µM)
# In short: as §1
# CAP-232 + Luminespib = compound: C[C@H]([C@@H](C(=O)N)NC(=O)[C@@H]1CSSC[C@@H](C(=O)N[C@H](C(=O)N[C@@H](C(=O)N[C@H](C(=O)N1)CCCCN)CC2=CNC3=CC=CC=C32)CC4=CC=C(C=C4)O)NC(=O)[C@@H](CC5=CC=CC=C5)N)O [CAP-232] + CCNC(=O)c1noc(-c2cc(C(C)C)c(O)cc2O)c1-c1ccc(CN2CCOCC2)cc1 [Luminespib] (partner 0.01 µM)
# In short: as §1
# CAP-232 + Phenformin = compound: C[C@H]([C@@H](C(=O)N)NC(=O)[C@@H]1CSSC[C@@H](C(=O)N[C@H](C(=O)N[C@@H](C(=O)N[C@H](C(=O)N1)CCCCN)CC2=CNC3=CC=CC=C32)CC4=CC=C(C=C4)O)NC(=O)[C@@H](CC5=CC=CC=C5)N)O [CAP-232] + N=C(N)NC(=N)NCCc1ccccc1 [Phenformin] (partner 250 µM)
# In short: as §1
# CAP-232 + Tozasertib = compound: C[C@H]([C@@H](C(=O)N)NC(=O)[C@@H]1CSSC[C@@H](C(=O)N[C@H](C(=O)N[C@@H](C(=O)N[C@H](C(=O)N1)CCCCN)CC2=CNC3=CC=CC=C32)CC4=CC=C(C=C4)O)NC(=O)[C@@H](CC5=CC=CC=C5)N)O [CAP-232] + Cc1cc(Nc2cc(N3CCN(C)CC3)nc(Sc3ccc(NC(=O)C4CC4)cc3)n2)n[nH]1 [Tozasertib] (partner 0.1 µM)
# In short: as §1
# CAP-232 + OSI-027 = compound: C[C@H]([C@@H](C(=O)N)NC(=O)[C@@H]1CSSC[C@@H](C(=O)N[C@H](C(=O)N[C@@H](C(=O)N[C@H](C(=O)N1)CCCCN)CC2=CNC3=CC=CC=C32)CC4=CC=C(C=C4)O)NC(=O)[C@@H](CC5=CC=CC=C5)N)O [CAP-232] + COc1cccc2cc(-c3nc([C@H]4CC[C@H](C(=O)O)CC4)n4ncnc(N)c34)[nH]c12 [OSI-027] (partner 0.5 µM)
# In short: as §1
# CAP-232 + Dasatinib = compound: C[C@H]([C@@H](C(=O)N)NC(=O)[C@@H]1CSSC[C@@H](C(=O)N[C@H](C(=O)N[C@@H](C(=O)N[C@H](C(=O)N1)CCCCN)CC2=CNC3=CC=CC=C32)CC4=CC=C(C=C4)O)NC(=O)[C@@H](CC5=CC=CC=C5)N)O [CAP-232] + Cc1nc(Nc2ncc(C(=O)Nc3c(C)cccc3Cl)s2)cc(N2CCN(CCO)CC2)n1 [Dasatinib] (partner 0.075 µM)
# In short: as §1
cell line,measurement,setting,value
NCI-H1299,relative viability,CAP-232; 0.4 µM,1.03
same,relative viability,CAP-232; 1.265 µM,1.01
same,relative viability,CAP-232; 4 µM,1.04
same,relative viability,CAP-232; 12.65 µM,1.02
same,relative viability,CAP-232 + Alpelisib; first compound 0.4 µM,1.04
same,relative viability,CAP-232 + Alpelisib; first compound 1.265 µM,1.05
same,relative viability,CAP-232 + Alpelisib; first compound 4 µM,1.03
same,relative viability,CAP-232 + Alpelisib; first compound 12.65 µM,1.08
same,relative viability,CAP-232 + Lapatinib; first compound 0.4 µM,1.03
same,relative viability,CAP-232 + Lapatinib; first compound 1.265 µM,0.963
same,relative viability,CAP-232 + Lapatinib; first compound 4 µM,0.908
same,relative viability,CAP-232 + Lapatinib; first compound 12.65 µM,0.96
same,relative viability,CAP-232 + Navitoclax; first compound 0.4 µM,1.04
same,relative viability,CAP-232 + Navitoclax; first compound 1.265 µM,0.991
same,relative viability,CAP-232 + Navitoclax; first compound 4 µM,1.1
same,relative viability,CAP-232 + Navitoclax; first compound 12.65 µM,1.1
same,relative viability,CAP-232 + Foretinib; first compound 0.4 µM,1.09
same,relative viability,CAP-232 + Foretinib; first compound 1.265 µM,1.06
same,relative viability,CAP-232 + Foretinib; first compound 4 µM,1.08
same,relative viability,CAP-232 + Foretinib; first compound 12.65 µM,1.05
same,relative viability,CAP-232 + Bortezomib; first compound 0.4 µM,1.02
same,relative viability,CAP-232 + Bortezomib; first compound 1.265 µM,1.02
same,relative viability,CAP-232 + Bortezomib; first compound 4 µM,1.06
same,relative viability,CAP-232 + Bortezomib; first compound 12.65 µM,1.01
same,relative viability,CAP-232 + Linsitinib; first compound 0.4 µM,1.15
same,relative viability,CAP-232 + Linsitinib; first compound 1.265 µM,0.92
same,relative viability,CAP-232 + Linsitinib; first compound 4 µM,1.06
same,relative viability,CAP-232 + Linsitinib; first compound 12.65 µM,1.09
same,relative viability,CAP-232 + Pictilisib; first compound 0.4 µM,0.747
same,relative viability,CAP-232 + Pictilisib; first compound 1.265 µM,0.746
same,relative viability,CAP-232 + Pictilisib; first compound 4 µM,0.626
same,relative viability,CAP-232 + Pictilisib; first compound 12.65 µM,0.589
same,relative viability,CAP-232 + Olaparib; first compound 0.4 µM,0.942
same,relative viability,CAP-232 + Olaparib; first compound 1.265 µM,1.01
same,relative viability,CAP-232 + Olaparib; first compound 4 µM,0.977
same,relative viability,CAP-232 + Olaparib; first compound 12.65 µM,0.934
same,relative viability,CAP-232 + Crizotinib; first compound 0.4 µM,0.955
same,relative viability,CAP-232 + Crizotinib; first compound 1.265 µM,0.952
same,relative viability,CAP-232 + Crizotinib; first compound 4 µM,0.941
same,relative viability,CAP-232 + Crizotinib; first compound 12.65 µM,1.02
NCI-H1623,relative viability,CAP-232; 0.4 µM,1.06
same,relative viability,CAP-232; 1.265 µM,1.02
same,relative viability,CAP-232; 4 µM,0.92
same,relative viability,CAP-232; 12.65 µM,1.01
same,relative viability,CAP-232 + Luminespib; first compound 0.4 µM,0.503
same,relative viability,CAP-232 + Luminespib; first compound 1.265 µM,0.467
same,relative viability,CAP-232 + Luminespib; first compound 4 µM,0.557
same,relative viability,CAP-232 + Luminespib; first compound 12.65 µM,0.359
same,relative viability,CAP-232 + Phenformin; first compound 0.4 µM,0.589
same,relative viability,CAP-232 + Phenformin; first compound 1.265 µM,0.579
same,relative viability,CAP-232 + Phenformin; first compound 4 µM,0.603
same,relative viability,CAP-232 + Phenformin; first compound 12.65 µM,0.566
same,relative viability,CAP-232 + Tozasertib; first compound 0.4 µM,0.713
same,relative viability,CAP-232 + Tozasertib; first compound 1.265 µM,0.411
same,relative viability,CAP-232 + Tozasertib; first compound 4 µM,0.465
same,relative viability,CAP-232 + Tozasertib; first compound 12.65 µM,0.632
same,relative viability,CAP-232 + Foretinib; first compound 0.4 µM,0.945
same,relative viability,CAP-232 + Foretinib; first compound 1.265 µM,0.802
same,relative viability,CAP-232 + Foretinib; first compound 4 µM,0.849
same,relative viability,CAP-232 + Foretinib; first compound 12.65 µM,0.769
same,relative viability,CAP-232 + OSI-027; first compound 0.4 µM,0.412
same,relative viability,CAP-232 + OSI-027; first compound 1.265 µM,0.495
same,relative viability,CAP-232 + OSI-027; first compound 4 µM,0.488
same,relative viability,CAP-232 + OSI-027; first compound 12.65 µM,0.38
same,relative viability,CAP-232 + Dasatinib; first compound 0.4 µM,0.612
same,relative viability,CAP-232 + Dasatinib; first compound 1.265 µM,0.47
same,relative viability,CAP-232 + Dasatinib; first compound 4 µM,0.521
same,relative viability,CAP-232 + Dasatinib; first compound 12.65 µM,0.742

# From the supplement of paper PMC10307832
